One series deals with LX-1 lung cancer. Put plainly: human tumor xenograft in nude mice, LX-1. Type of series: in vivo. Conditions: Q1D × 20, 120 mg/kg/day. (Xenograft models place foreign cells or tissue in a host animal.)
A further series deals with H-143 colorectal cancer. Put plainly: human tumor xenograft in nude mice, H-143. The format is in vivo. Conditions: Q5D × 5, 300 mg/kg/day.
In a further series the test system is MiaPaCa-2 pancreatic. Put plainly: MiaPaCa-2 orthotopic tumor model. Type of series: in vivo, human. As to conditions: for % T/C: orthotopic, d 1-5, 11-15. The source says: (2-((4-hydroxyphenyl)amino)pyrid-3-yl)-4-methoxybenzenesulfonamide inhibited the growth of a variety of human tumor xenografts that were allowed to grow into established tumors prior to the initiation of treatment. As summarized below, activity was seen against established tumors derived from colon, breast and lung carcinomas. (2-((4-hydroxyphenyl)amino)pyrid-3-yl)-4-methoxybenzenesulfonamide was also active against a human pancreatic tumor xenograft grown in the orthotopic site.

Series [1] relates to HCT-15 human colon carcinoma. The series can be described thus: HCT-15 human colon carcinoma xenografts. The format is in vivo. The source says: HCT-15 is a human colon carcinoma derived cell line. It is MDR positive, and expresses both mutant p53 and oncogenic K-ras. The HCT-15 cell line has one of the highest levels of mdr-1/P-glycoprotein expression of cells from the NCI tumor cell line panel.
Effect of Cytotoxic Agents on the Growth of HCT-15 Human Colon Carcinoma Xenografts

Another series has as its system C26 colon tumors. Put plainly: C26 colon tumors grown in the flank of CDF-1 mice. Type of series: in vivo.
The nature of series [2]: adverse side effects reported in 134 patients. Type of series: in vivo, human. Conditions: of 134 patients; 200-300 mg QD, 125-175 mg BID. The procedure: For 134 patients tested, at doses of about 200 mg QD, 250 mg QD, 300 mg QD, 125 mg BID, 150 mg BID, and 175 mg BID, 16 reported anemia, of which 11 were Grades I or II and 5 were Grades (III or IV); 1 reported Grade I or II alpoecia; 8 reported Grade I or II neutropenia; and none reported fluid retention, for which Grade I is defined as mild, Grade II is defined as moderate, Grade III is defined as severe, Grade IV is defined as life threatening.

Series [3] is described as follows: dose limiting toxicity in cancer subjects, single dose and 5-day repeated dose. Type of series: in vivo, human. The procedure:
(2-((4-hydroxyphenyl)amino)pyrid-3-yl)-4-methoxybenzenesulfonamide was evaluated in 57 cancer subjects in single dose (16 subjects) and 5-day repeated dose regimens (41 subjects). The doses administered in the single dose segment were 80 to 480 mg/m^2/day. In the 5-day repeated dose regimen (2-((4-hydroxyphenyl)amino)pyrid-3-yl)-4-methoxybenzenesulfonamide was given at 30 to 240 mg/m^2/day for a single cycle. […] Adverse drug reactions from the single dose and 5-day repeated dose segments included nausea and vomiting, diarrhea, epigastric pain, ileus and evidence of peripheral neuropathy. For the single dose segment, the dose limiting toxicity (DLT) was Grade 3 peripheral neuropathy in 1 of 5 subjects at 480 mg/m^2/day. In the 5-day repeated dose regimen the dose limiting toxicities were Grade 3 peripheral neuropathy in 1 of 4 subjects at 210 mg/m^2/day and Grade 4 intestinal paralysis in 1 of 4 subjects at 210 mg/m^2/day and in 1 of 6 subjects at 240 mg/m^2/day.

In series [4] the test system is MDA-MB-468 breast carcinoma. The series can be described thus: MDA-MB-468 breast flank xenograft model (staged). Type of series: in vivo, human. The procedure:
Following inoculation of tumor cells, tumors were passaged three times in mice before using the fragments to generate single cell suspensions. Multiple animals were used as donors. Single cell suspensions were generated by homogenizing the minced tumor tissue in RPMI 1640 media. Cell suspensions were washed three times to remove debris and other foreign materials. Viable cells were counted by trypan blue exclusion technique using a hemocytometer. Mice were injected subcutaneously with 0.5 mL of the cell suspension containing 1×10^6 cells.
For determination of the efficacy of N-(2-((4-hydroxyphenyl)amino)pyrid-3-yl)-4-methoxybenzenesulfonamide in the MDA-MB-468 Breast Flank Xenograft model, tumor cells derived from serially passaged tumor fragments were inoculated subcutaneously in female nude mice on day 0. On day 10, mice bearing established tumors were size matched and grouped at about 231 mm^3.

For another series, the system named is H-154 gastric cancer. Put plainly: human tumor xenograft in nude mice, H-154. The format is in vivo. Conditions: Q5D × 5, 300 mg/kg/day.
[5] abbreviates: 5-day repeated dose, 210 mg/m^2/day.

Regarding `COc1ccc(S(=O)(=O)Nc2cccnc2Nc2ccc(O)cc2)cc1` [ABT-751, N-(2-((4-hydroxyphenyl)amino)pyrid-3-yl)-4-methoxybenzenesulfonamide], in the series with LX-1 lung cancer, the “T/C (%)” value stood at 37%. Besides, the “T/C (%)” value in the series with H-143 colorectal cancer came to 17%. Besides, the “antitumor activity in combination with gemcitabine compared to single agent alone” value with MiaPaCa-2 pancreatic (in combination with gemcitabine, MiaPaCa2 pancreatic xenograft) was “increase in antitumor activity”. Further, the “% T/C” value with MiaPaCa-2 pancreatic (oral 75 mg/kg/d QD) came to 79%. In the series on MiaPaCa-2 pancreatic (oral 100 mg/kg/d QD), the “% T/C” value is listed as 56%. Also, the “% ILS” value in series [1] (50 mg/kg/d PO, QD, days 1-8) worked out at 34%. In series [1] (50 mg/kg/d PO, QD, days 1-8, 2 trials), the T/C is recorded as 50 (2). The “efficacy in HCT-15 xenografts” value in [1] (in words) was “effective in inhibiting tumor growth”. The “antitumor activity against C26 colon tumors” value in the series on C26 colon tumors (5-day schedule) is given as “only marginally active”. The “antitumor activity against C26 colon tumors” value in the series with C26 colon tumors (extended dosing) is on record as “significant antitumor response”. In series [2], the “patients reporting Grade I or II alopecia” value came to 1, the “patients reporting Grade I or II neutropenia” value is reported as 8, the patients reporting anemia was 16 and the “patients reporting anemia Grades I or II” value is listed as 11. In addition, in [2], the “patients reporting anemia Grades III or IV” value is given as 5 and the “patients reporting fluid retention” value is “none”. Further, in series [3] (setting [5]), the “dose limiting toxicity: Grade 3 peripheral neuropathy, subjects affected” value is listed as 1 of 4 and the “dose limiting toxicity: Grade 4 intestinal paralysis, subjects affected” value is recorded as 1 of 4. In addition, in series [3] (5-day repeated dose, 240 mg/m^2/day), the “dose limiting toxicity: Grade 4 intestinal paralysis, subjects affected” value is recorded as 1 of 6. In addition, the “dose limiting toxicity: Grade 3 peripheral neuropathy, subjects affected” value in [3] (single dose, 480 mg/m^2/day) is 1 of 5. The “antitumor activity as single agent” value in [4] (100 and 75 mg/kg/day (5 days on/5 days off)×2, 50 mg/kg/day daily) is “dose-dependent antitumor activity”. Besides, the “response in combination with docetaxel” value in series [4] (in combination with docetaxel at 33.3 mg/kg/day) is given as “greater than additive responses”. Moreover, in the series with H-154 gastric cancer, the “T/C (%)” value came out at 71%.

(Values after patent US20050267166A1, “Continuous dosing regimen” (priority 2004, published 2005).)
